What was measured:
Experiment in all cases: UV-visible spectral titration, difference spectra, quadratic fit
Assay type in all cases: binding
[1] = target: T1, cytochrome P450 OleP (Streptomyces antibioticus, UniProt Q59819, G92W)
T1 construct: recombinant His-tagged OleP mutants from pET28b(+)-OleP, expressed in E. coli BL21(DE3), monomer, heme-containing
T1 sequence (Q59819 1-407 G92W): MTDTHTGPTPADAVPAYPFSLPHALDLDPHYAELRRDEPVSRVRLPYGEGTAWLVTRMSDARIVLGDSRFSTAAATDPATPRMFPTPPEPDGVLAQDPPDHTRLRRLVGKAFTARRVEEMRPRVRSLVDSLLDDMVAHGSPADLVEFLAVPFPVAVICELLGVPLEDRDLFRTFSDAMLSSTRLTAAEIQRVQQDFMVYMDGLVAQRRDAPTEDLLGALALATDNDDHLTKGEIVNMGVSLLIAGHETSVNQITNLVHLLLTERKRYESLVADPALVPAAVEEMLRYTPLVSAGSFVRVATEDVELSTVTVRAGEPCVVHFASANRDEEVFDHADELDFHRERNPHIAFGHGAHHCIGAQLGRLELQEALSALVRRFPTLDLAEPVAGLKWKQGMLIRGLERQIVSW

[2] = target: T2, cytochrome P450 OleP (Streptomyces antibioticus, UniProt Q59819, S240Y)
T2 construct: recombinant His-tagged OleP mutants from pET28b(+)-OleP, expressed in E. coli BL21(DE3), monomer, heme-containing
T2 sequence (Q59819 1-407 S240Y): T1 sequence (Q59819 1-407 G92W)

[3] = target: T3, cytochrome P450 OleP (Streptomyces antibioticus, UniProt Q59819, E89Y)
T3 construct: recombinant His-tagged OleP mutants from pET28b(+)-OleP, expressed in E. coli BL21(DE3), monomer, heme-containing
T3 sequence (Q59819 1-407 E89Y): T1 sequence (Q59819 1-407 G92W)

CC[C@H]1OC(=O)[C@H](C)[C@@H](O)[C@H](C)[C@@H](O)[C@@H](C)C[C@@H](C)C(=O)[C@H](C)[C@@H](O)[C@H]1C [6DEB]
Kd [1]: 1200 ± 100 nM
Kd [2]: 700 ± 100 nM
Kd [3]: 8500 ± 800 nM

Source: publication PMC8774231, “Point Mutations at a Key Site Alter the Cytochrome P450 OleP Structural Dynamics” (Biomolecules, 2021)
